What all share (assay): In vitro percent disease control (radii of spore growth on agar)
Common to all, as to format: cell-based

The subject of data set [1] is Alternaria mali. The settings on record: Alternaria mali, read-out: % controlled, Al. The protocol:
(§1) The compounds of this invention were dissolved respectively in acetone in an amount equal to 10% of the final volume and then in purified water at the concentration of 100 ppm and 50 ppm.
(§2) Each of the solution was mixed with potato-sucrose-agar medium in a 6" petri dish and one of the fungi was spotted at the center of the dish. The dish was incubated in growth room for several days. The percent disease control was derived from the radii of spore growth. The screening tests in vitro condition are well-known to those skilled in the art.
(§3) The following fungi were used for the screening.

The subject of data set [2] is Rhizopus sp. The settings on record: Rhizopus. The protocol:
as §1, §2, §3

Data set [3] deals with Phytophthora capsisi. The settings on record: Phytophthora, read-out: % controlled, Phy ca. Here is the method: as §1, §2, §3
2) Phy. ca.; Phytophthora capsisi

Data set [4] has as its system Physalospora baccae. As to conditions: read-out: % controlled, Phy ba. Here is the method:
as §1, §2, §3
3) Phy. ba.; Physalospora baccae

Data set [5] has as its system Botryosphaeria dothidea Macrophoma sp. The settings on record: Botryosphaeria dothidea, read-out: % controlled, Bo.do (Ma.). The protocol: as §1, §2, §3
4) Bo.do(Ma); Botryosphaeria dothidea Macrophoma sp.

Data set [6] has as its system Glomerella cingulata. As to conditions: Colletotrichum gloeosporioides, read-out: % controlled, Glo. The protocol:
as §1, §2, §3
5) Glo.; Glomerella cingulata

Data set [7] concerns Pyricalaria oryzae. As to conditions: for inhibition of growth at 50 ppm: read-out: % controlled, Py. or., 50 ppm; for inhibition of growth at 100 ppm: read-out: % controlled, Py. or., 100 ppm. The protocol: as §1, §2, §3
6) Py.or.; Pyricalaria oryzae

Data set [8] concerns Rhizoctonia solani. The settings on record: Rhizoctonia solani, read-out: % controlled, Rhy. so. Here is the method: as §1, §2, §3
7) Rhi.so.; Rhizoctonia solani

In data set [9] the test system is Fusarium moniliforme. The protocol: as §1, §2, §3
8) Fu.mo.; Fusarium moniliforme

Data set [10] deals with Botry tris cinerea. As to conditions: read-out: % controlled, Bo ci. The protocol: as §1, §2, §3
10) Bo.ci.; Botry tris cinerea

The mark [11] stands for this setting: 50 ppm, read-out: % controlled, Rhi. sp.
Setting [12] is: read-out: % controlled, Rhi. sp.

Each structure is given as a SMILES string. Read-outs that look alike come from different tables or passages of the source.

For the compound `C[Si](C)(C[Si](C)(Cn1cncn1)c1ccc(Cl)cc1)c1ccc(Cl)cc1` (stereo not drawn) [2,4-bis(4-chlorophenyl)-2,4-dimethyl-2,4-disila-1-(1H-1,2,4-triazol-1-yl)pentane], the inhibition of growth at 50 ppm in data set [1] is 54%; in [2] (setting [11]) it was 31%; in data set [3] it was 16%; in data set [4] it was 34%; in [5], 80%; in [6] it was 70%. Also, the inhibition of growth at 50 ppm in data set [7] stood at 27%; in [8] it was 28%; in [10], 33%. The inhibition of growth at 100 ppm stood at 69% in data set [1]; 40% in [2] (setting [12]); 22% in data set [3]; 37% in data set [4]; 82% in data set [5]; 76% in data set [6]. Further, the inhibition of growth at 100 ppm in data set [7] is 27%; in data set [8], 42%; in data set [10] it was 41%. Besides, the “% controlled, Fu. mo.” value came to 48% in data set [9] (50 ppm) and 57% in [9] (100 ppm).

In the case of `CCOc1ccc([Si](C)(C)C[Si](C)(Cn2cncn2)c2ccc(F)cc2)cc1` (stereo not drawn) [4-(4-ethoxyphenyl)-2-(4-fluorophenyl)-2,4-dimethyl-2,4-disila-1-(1H-1,2,4-triazol-1-yl)pentane], the inhibition of growth at 50 ppm in data set [1] came out at 63%; in data set [2] (read-out: % controlled, Rhi. sp., 50 ppm), 19%; in [3] it was 50%; in data set [4] it was 53%; in [5] it was 74%; in data set [6] it was 71%. Also, the values for the inhibition of growth at 50 ppm in data set [7], in data set [8] and in [10] were 100%, 78% and 69%, respectively. Further, the inhibition of growth at 100 ppm in data set [1] was 72%; in [2] (setting [12]) it was 43%; in [3], 60%; in [4] it was 74%; in [5], 78%; in [6] it was 77%. Further, the results for the inhibition of growth at 100 ppm in data set [7], in [8] and in data set [10] were 100%, 78% and 66%, respectively. The “% controlled, Fu. mo.” value in data set [9] (50 ppm) is 58%; in [9] (100 ppm), 63%.

Consider `C=CC[Si](C)(Cn1cncn1)C[Si](CC=C)(c1ccc(F)cc1)c1ccc(F)cc1` (stereo not drawn) [6,6-bis(4-fluorophenyl)-4-methyl-4,6-disila-4-(1H-1,2,4-triazol-1-ylmethyl)-1,8-nonadiene], for which the inhibition of growth at 50 ppm in data set [1] was determined as 78%; in data set [2] (setting [11]) it was 100%; in [3] it was 21%; in data set [4] it was 60%; in [5], 100%; in data set [6], 100%. The inhibition of growth at 50 ppm in [7] stood at 85%; in [8], 75%; in [10] it was 86%. Moreover, the inhibition of growth at 100 ppm was determined as 100% in data set [1]; 100% in data set [2] (setting [12]); 100% in [3]; 80% in data set [4]; 100% in data set [5]; 100% in [6]. In addition, the inhibition of growth at 100 ppm turned out to be 100% in data set [7], 87% in data set [8] and 100% in [10]. In addition, the “% controlled, Fu. mo.” value in data set [9] (50 ppm) and in [9] (100 ppm) was 100% each time.

Consider `C[Si](C)(C[Si](C)(Cn1cncn1)c1ccc(F)cc1)c1ccc(-c2ccccc2)cc1` (stereo not drawn) [2-(4-fluorophenyl)-4-(4-phenylphenyl)2,4-dimethyl-2,4-disila-1-(1H-1,2,4-triazol-1-yl)pentane], for which the inhibition of growth at 50 ppm came to 75% in data set [1]; 50% in [2] (setting [11]); 69% in data set [4]; 79% in data set [5]; 87% in data set [6]; 100% in data set [7]. Also, the values for the inhibition of growth at 50 ppm in [8] and in data set [10] were 96% and 90%, respectively. The inhibition of growth at 100 ppm in [1] was 79%; in data set [2] (setting [12]), 50%; in data set [4], 69%; in data set [5] it was 79%; in data set [6], 87%; in data set [7], 100%. The values for the inhibition of growth at 100 ppm in data set [8] and in [10] were 96% and 90%, respectively. The “% controlled, Fu. mo.” value in data set [9] (50 ppm) and in data set [9] (100 ppm) was 46% in each case.

For `C=CC[Si](Cn1cncn1)(C[Si](CC=C)(c1ccccc1)c1ccc(-c2ccccc2)cc1)c1ccc(F)cc1` (stereo not drawn) [4-(4-fluorophenyl)-6-phenyl-6-(4-phenylphenyl)-4,6-disila-4-(1H-1,2,4-triazol-1-ylmethyl)-1,8-nonadiene], the inhibition of growth at 50 ppm in [1] amounted to 72%; in [2] (setting [11]), 50%; in data set [3] it was 70%; in data set [4], 65%; in data set [6], 80%; in [7] it was 100%. Further, the results for the inhibition of growth at 50 ppm in data set [8] and in data set [10] were 60% and 90%, respectively. In addition, the inhibition of growth at 100 ppm in data set [1] stood at 78%; in [2] (setting [12]), 58%; in [3] it was 72%; in data set [4], 69%; in data set [6] it was 86%; in data set [7] it was 100%. In addition, the inhibition of growth at 100 ppm in data set [8] and in [10] was 90% each time. Also, the “% controlled, Fu. mo.” value was 61% in data set [9] (50 ppm) and 65% in data set [9] (100 ppm).

On to `C[Si](C)(C)C[Si](C)(Cn1cncn1)c1ccc(F)cc1` (stereo not drawn) [2-(4-fluorophenyl)-2,4,4-trimethyl-2,4-disila-1-(1H-1,2,4-triazol-1-yl)pentane], for which the inhibition of growth at 50 ppm in data set [1] was 78%; in [2] (setting [11]), 49%; in data set [3] it was 20%; in data set [4] it was 56%; in data set [5], 69%; in data set [7] it was 100%. Besides, the inhibition of growth at 50 ppm turned out to be 90% in [8] and 81% in data set [10]. For the same compound, the inhibition of growth at 100 ppm turned out to be 81% in [1]; 56% in data set [2] (setting [12]); 31% in data set [3]; 72% in [4]; 74% in [5]; 100% in data set [7]. For the same compound, the results for the inhibition of growth at 100 ppm in data set [8] and in data set [10] were 90% and 83%, respectively. Moreover, the “% controlled, Fu. mo.” value in data set [9] (50 ppm) worked out at 62%; in data set [9] (100 ppm), 66%.

Turning to `C=CC[Si](CC=C)(Cn1cncn1)C[Si](CC=C)(c1ccc(F)cc1)c1ccc(-c2ccccc2)cc1` (stereo not drawn) [6-(4-fluorophenyl)-6-(4-phenylphenyl)-4-(2-propenyl)-4,6-disila-4-(1H-1,2,4-triazol-1-ylmethyl)-1,8-nonadiene], the inhibition of growth at 50 ppm turned out to be 100% in [1]; 100% in [2] (setting [11]); 40% in data set [3]; 100% in data set [4]; 100% in data set [5]; 100% in [6]. Moreover, the inhibition of growth at 50 ppm in data set [7], in data set [8] and in data set [10] was 100% each time. For the same compound, the inhibition of growth at 100 ppm in data set [1] worked out at 100%; in data set [2] (setting [12]), 100%; in data set [3], 50%; in data set [4] it was 100%; in [5], 100%; in data set [6], 100%. In addition, the inhibition of growth at 100 ppm in [7], in data set [8] and in [10] was 100% throughout.

For the origin of these results see patent US5235061A, “Fungicidal (1H-1,2,4-triazolyl)disilaalkanes” (priority 1991, dated 1993).
